Laboratory results: PubChem BioAssay AID256 (DTP/NCI, 2004)
Values joined by “and” are separate entries in the source; they are usually repeats but may differ in a detail not shown here. Identical values can stand only once. Inconclusive results and toxic doses are left out.

Test system: CD2F1 mice, L1210 leukemia ip, survival T/C
Assay: NCI In Vivo Anticancer Drug Screen. Data for tumor model L1210 Leukemia (intraperitoneal) in CD2F1 (CDF1) mice
Details: higher = longer survival
Outline: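 In this screen, transplantable tumors were grown in mice given either the compound or its vehicle. Results were expressed as the treated measurement relative to the control measurement.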

[1] = endpoint: mean survival time, dose: 100.0 mg/kg/injection, schedule: Q01DX001 (ip), vehicle: saline
[2] = endpoint: mean survival time, dose: 100.0 mg/kg/injection, schedule: Q01DX001 (ip), vehicle: Klucel (hydroxypropylcellulose) (HPC)
[3] = endpoint: mean survival time, dose: 200.0 mg/kg/injection, schedule: Q01DX001 (ip), vehicle: Klucel (hydroxypropylcellulose) (HPC)
[4] = endpoint: mean survival time, dose: 400.0 mg/kg/injection, schedule: Q01DX001 (ip), vehicle: Klucel (hydroxypropylcellulose) (HPC)
[5] = endpoint: mean survival time, dose: 100.0 mg/kg/injection, schedule: Q01DX009 (ip), vehicle: saline with Tween-80
[6] = endpoint: mean survival time, dose: 400.0 mg/kg/injection, schedule: Q01DX009 (ip), vehicle: saline with Tween-80
[7] = endpoint: mean survival time, dose: 100.0 mg/kg/injection, schedule: Q04DX003 (ip), vehicle: saline with Tween-80
[8] = endpoint: mean survival time, dose: 200.0 mg/kg/injection, schedule: Q04DX003 (ip), vehicle: saline with Tween-80
[9] = endpoint: mean survival time, dose: 400.0 mg/kg/injection, schedule: Q04DX003 (ip), vehicle: saline with Tween-80

For C=C1C=CC1=O, the T/C (endpoint: mean survival time, dose: 1.0 micrograms/kg/injection, schedule: Q01DX009 (ip), vehicle: olive oil, sesame oil, peanut oil) was 97 % of control, the T/C (endpoint: mean survival time, dose: 1.0 micrograms/kg/injection, schedule: Q01DX009 (ip), vehicle: other) was 102 % of control and the T/C (endpoint: mean survival time, dose: 6.0 micrograms/kg/injection, schedule: Q01DX009 (ip), vehicle: olive oil, sesame oil, peanut oil) was 97 % of control. For the same compound, the T/C (endpoint: mean survival time, dose: 6.0 micrograms/kg/injection, schedule: Q01DX009 (ip), vehicle: other) was 103 % of control, the T/C (endpoint: mean survival time, dose: 10.0 micrograms/kg/injection, schedule: Q01DX009 (ip), vehicle: olive oil, sesame oil, peanut oil) was 94 % of control and the T/C (endpoint: mean survival time, dose: 10.0 micrograms/kg/injection, schedule: Q01DX009 (ip), vehicle: other) was 101 % of control. For the same compound, the T/C (endpoint: mean survival time, dose: 60.0 micrograms/kg/injection, schedule: Q01DX009 (ip), vehicle: olive oil, sesame oil, peanut oil) was 96 % of control, the T/C (endpoint: mean survival time, dose: 60.0 micrograms/kg/injection, schedule: Q01DX009 (ip), vehicle: other) was 104 % of control and the T/C (endpoint: mean survival time, dose: 100.0 micrograms/kg/injection, schedule: Q01DX006 (ip), vehicle: other) was 101 % of control. The T/C (endpoint: mean survival time, dose: 100.0 micrograms/kg/injection, schedule: Q01DX009 (ip), vehicle: olive oil, sesame oil, peanut oil) was 97 % of control, the T/C (endpoint: mean survival time, dose: 100.0 micrograms/kg/injection, schedule: Q01DX009 (ip), vehicle: other) was 100 % of control and the T/C (endpoint: mean survival time, dose: 600.0 micrograms/kg/injection, schedule: Q01DX009 (ip), vehicle: olive oil, sesame oil, peanut oil) was 91 % of control. For the same compound, the T/C (endpoint: mean survival time, dose: 1000.0 micrograms/kg/injection, schedule: Q01DX009 (ip), vehicle: olive oil, sesame oil, peanut oil) was 96 % of control.

For Cc1nnn2ccccc12, the T/C [1] was 95 % of control.

CCOC(=O)c1cc([N+](=O)[O-])c(Sc2ncnc3nc[nH]c23)c([N+](=O)[O-])c1 was tested, and the T/C (endpoint: mean survival time, dose: 0.63 mg/kg/injection, schedule: Q01DX005 (ip), vehicle: other) was 104 % of control, the T/C (endpoint: mean survival time, dose: 1.25 mg/kg/injection, schedule: Q01DX005 (ip), vehicle: other) was 109 % of control and the T/C (endpoint: mean survival time, dose: 2.5 mg/kg/injection, schedule: Q01DX005 (ip), vehicle: other) was 101 % of control. The T/C (endpoint: mean survival time, dose: 5.0 mg/kg/injection, schedule: Q01DX005 (ip), vehicle: other) was 114 % of control, the T/C (endpoint: mean survival time, dose: 10.0 mg/kg/injection, schedule: Q01DX005 (ip), vehicle: other) was 114 % of control and the T/C (endpoint: mean survival time, dose: 20.0 mg/kg/injection, schedule: Q01DX005 (ip), vehicle: other) was 113 % of control. The T/C (endpoint: mean survival time, dose: 40.0 mg/kg/injection, schedule: Q01DX005 (ip), vehicle: other) was 120 % of control and the T/C (endpoint: mean survival time, dose: 80.0 mg/kg/injection, schedule: Q01DX005 (ip), vehicle: other) was 117 % of control.

With O=S(=O)(Nc1cc(N2CCCCC2)c(NS(=O)(=O)c2ccccc2)cc1N1CCCCC1)c1ccccc1 the T/C [2] was 88 % of control, the T/C [3] was 98 % of control and the T/C [4] was 90 % of control.

With N#CN1CCC2CC3(CCC2C1)OCCO3 (stereo not given) the T/C [1] was 96 % of control, the T/C (endpoint: mean survival time, dose: 200.0 mg/kg/injection, schedule: Q01DX001 (ip), vehicle: saline) was 91 % of control and the T/C (endpoint: mean survival time, dose: 400.0 mg/kg/injection, schedule: Q01DX001 (ip), vehicle: saline) was 96 % of control.

For COC(=O)c1ccc[n+](CCc2c[nH]c3ccccc23)c1, the T/C (endpoint: mean survival time, dose: 12.5 mg/kg/injection, schedule: Q01DX009 (ip), vehicle: saline with Tween-80) was 92 % of control, the T/C (endpoint: mean survival time, dose: 25.0 mg/kg/injection, schedule: Q01DX009 (ip), vehicle: saline with Tween-80) was 97 % of control and the T/C (endpoint: mean survival time, dose: 50.0 mg/kg/injection, schedule: Q01DX009 (ip), vehicle: saline with Tween-80) was 96 % of control and 107 % of control. For the same compound, the T/C (endpoint: mean survival time, dose: 100.0 mg/kg/injection, schedule: Q01DX001 (ip), vehicle: saline with Tween-80) was 101 % of control and the T/C (endpoint: mean survival time, dose: 200.0 mg/kg/injection, schedule: Q01DX001 (ip), vehicle: saline with Tween-80) was 96 % of control.

In the case of CNC(=O)OCc1nc(SC)n(C)c1COC(=O)NC, the T/C (endpoint: median survival time, dose: 12.5 mg/kg/injection, schedule: Q01DX005 (ip), vehicle: saline) is reported as 103 % of control, the T/C (endpoint: median survival time, dose: 12.5 mg/kg/injection, schedule: Q01DX005 (ip), vehicle: suspension in saline) is reported as 111 % of control and the T/C (endpoint: median survival time, dose: 25.0 mg/kg/injection, schedule: Q01DX005 (ip), vehicle: saline) is reported as 111 % of control. The T/C (endpoint: median survival time, dose: 25.0 mg/kg/injection, schedule: Q01DX005 (ip), vehicle: suspension in saline) was 114 % of control, the T/C (endpoint: median survival time, dose: 65.0 mg/kg/injection, schedule: Q01DX005 (ip), vehicle: saline) was 175 % of control and the T/C (endpoint: median survival time, dose: 200.0 mg/kg/injection, schedule: Q01DX005 (ip), vehicle: suspension in saline) was 87 % of control.

COC(=O)c1ccc(N=NN(C)C)cc1 was tested, and the T/C (endpoint: mean survival time, dose: 23.0 mg/kg/injection, schedule: Q01DX009 (ip), vehicle: Klucel (hydroxypropylcellulose) (HPC)) was 108 % of control, the T/C (endpoint: mean survival time, dose: 39.0 mg/kg/injection, schedule: Q01DX009 (ip), vehicle: Klucel (hydroxypropylcellulose) (HPC)) was 108 % of control and the T/C (endpoint: mean survival time, dose: 65.0 mg/kg/injection, schedule: Q01DX009 (ip), vehicle: Klucel (hydroxypropylcellulose) (HPC)) was 116 % of control.

With CC(=O)Nc1cc(S(=O)(=O)O)cc(N)c1O the T/C [2] was 114 % of control, the T/C [3] was 103 % of control and the T/C [4] was 106 % of control.

In the case of NCCS(=O)(=O)O, the T/C (endpoint: mean survival time, dose: 100.0 mg/kg/injection, schedule: Q01DX009 (ip), vehicle: water) is reported as 95 % of control, the T/C (endpoint: mean survival time, dose: 200.0 mg/kg/injection, schedule: Q01DX001 (ip), vehicle: water) is reported as 98 % of control and the T/C (endpoint: mean survival time, dose: 200.0 mg/kg/injection, schedule: Q01DX009 (ip), vehicle: water) is reported as 86 % of control. The T/C (endpoint: mean survival time, dose: 400.0 mg/kg/injection, schedule: Q01DX001 (ip), vehicle: water) was 96 % of control, the T/C (endpoint: mean survival time, dose: 400.0 mg/kg/injection, schedule: Q01DX009 (ip), vehicle: water) was 92 % of control and the T/C (endpoint: mean survival time, dose: 800.0 mg/kg/injection, schedule: Q01DX001 (ip), vehicle: water) was 98 % of control. For the same compound, the T/C (endpoint: mean survival time, dose: 800.0 mg/kg/injection, schedule: Q01DX009 (ip), vehicle: water) was 92 % of control and the T/C (endpoint: mean survival time, dose: 1600.0 mg/kg/injection, schedule: Q01DX001 (ip), vehicle: water) was 107 % of control.

With CC(C(=O)c1ccccc1)C(c1ccccc1)P(=O)(c1ccccc1)c1ccccc1 (stereo not given) the T/C [5] was 102 % of control and the T/C [6] was 104 % of control.

For COc1ccc(C2(C#N)CCCC2)cc1, the T/C (endpoint: mean survival time, dose: 100.0 mg/kg/injection, schedule: Q01DX009 (ip), vehicle: saline sonified) was 94 % of control, the T/C [7] was 97 % of control and the T/C (endpoint: mean survival time, dose: 200.0 mg/kg/injection, schedule: Q01DX009 (ip), vehicle: saline sonified) was 102 % of control. The T/C [8] was 101 % of control, the T/C (endpoint: mean survival time, dose: 400.0 mg/kg/injection, schedule: Q01DX009 (ip), vehicle: saline sonified) was 96 % of control and the T/C [9] was 95 % of control.

For Cc1ccc(S(=O)(=O)OCC2OCOC(COS(=O)(=O)c3ccc(C)cc3)C(O)C2O)cc1 (stereo not given), the T/C [5] was 101 % of control, the T/C (endpoint: mean survival time, dose: 200.0 mg/kg/injection, schedule: Q01DX009 (ip), vehicle: saline with Tween-80) was 98 % of control and the T/C [6] was 96 % of control.

With BrC=C=C1CCCCC1 the T/C [7] was 95 % of control, the T/C [8] was 93 % of control and the T/C [9] was 97 % of control.

For CNc1ncnc2c1cnn2C1OC(CO)C(O)C1O (stereo not given), the T/C (endpoint: mean survival time, dose: 12.5 mg/kg/injection, schedule: Q01DX005 (ip), vehicle: water) was 93 % of control, the T/C (endpoint: mean survival time, dose: 25.0 mg/kg/injection, schedule: Q01DX005 (ip), vehicle: water) was 102 % of control and the T/C (endpoint: mean survival time, dose: 50.0 mg/kg/injection, schedule: Q01DX005 (ip), vehicle: water) was 104 % of control.

In the case of CC/C(=C(/CC)c1ccc(OP(=O)(Cl)N(CCCl)CCCl)cc1)c1ccc(OP(=O)(Cl)N(CCCl)CCCl)cc1 (stereo not given), the T/C (endpoint: median survival time, dose: 31.25 mg/kg/injection, schedule: Q01DX001 (ip), vehicle: distilled water + Tween-80) is reported as 108 % of control, the T/C (endpoint: median survival time, dose: 62.5 mg/kg/injection, schedule: Q01DX001 (ip), vehicle: distilled water + Tween-80) is reported as 101 % of control and the T/C (endpoint: median survival time, dose: 125.0 mg/kg/injection, schedule: Q01DX001 (ip), vehicle: distilled water + Tween-80) is reported as 97 % of control. For the same compound, the T/C (endpoint: median survival time, dose: 250.0 mg/kg/injection, schedule: Q01DX001 (ip), vehicle: distilled water + Tween-80) was 100 % of control and the T/C (endpoint: median survival time, dose: 500.0 mg/kg/injection, schedule: Q01DX001 (ip), vehicle: distilled water + Tween-80) was 100 % of control.

With CCCCCCCCCCCC[n+]1c(C)cc(N)c2ccccc21 the T/C (endpoint: mean survival time, dose: 1.25 mg/kg/injection, schedule: Q01DX001 (ip), vehicle: other) was 103 % of control and the T/C (endpoint: mean survival time, dose: 5.0 mg/kg/injection, schedule: Q01DX001 (ip), vehicle: other) was 101 % of control.

For NC(Cc1c[nH]c2ccc(N(CCCl)CCCl)cc12)C(=O)O (stereo not given), the T/C (endpoint: mean survival time, dose: 0.5 mg/kg/injection, schedule: Q01DX010 (ip), vehicle: saline) was 150 % of control, the T/C (endpoint: mean survival time, dose: 1.0 mg/kg/injection, schedule: Q01DX010 (ip), vehicle: saline) was 160 % of control and the T/C (endpoint: mean survival time, dose: 2.0 mg/kg/injection, schedule: Q01DX010 (ip), vehicle: saline) was 208 % of control.
